Legend:
Assay in all cases: Biological Example 2 glasshouse assay for herbicidal activity
Format in all cases: in vivo
[1] = system: Echinochloa crus-galli (ECHCG); conditions: post-emergence, 14 or 15 DAA; for percentage phytotoxicity ECHCG: 0.2% v/v X-77
Outline: (§1)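 Glasshouse pots sprayed pre-emergence (1 day after sowing) or post-emergence (~12 days) with active ingredient formulated as IF50 in water plus 0.2% v/v X-77; warm species 24/18 °C, cool species 20/16 °C, 16 h light, 65% humidity. Visual % phytotoxicity scored 14–15 DAA (post) or 20 DAA (pre).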

[2] = system: Alopecurus myosuroides (ALOMY); conditions: post-emergence, 360 h, 14 or 15 DAA, 0.2% v/v X-77, read-out: percentage phytotoxicity ALOMY
Outline: as §1

Setaria faberi (SETFA) = conditions: post-emergence, 360 h, 14 or 15 DAA, 0.2% v/v X-77, read-out: percentage phytotoxicity SETFA
Outline: as §1

[3] = system: Zea mays (ZEAMX, corn, maize, e.g. volunteer corn); conditions: post-emergence, 14 or 15 DAA
Outline: as §1

Avena fatua (AVEFA) = conditions: post-emergence, 360 h, 14 or 15 DAA, 0.2% v/v X-77, read-out: percentage phytotoxicity AVEFA
Outline: as §1

[4] = system: Triticum aestivum (TRZAW, winter wheat); conditions: post-emergence, 360 h, 14 or 15 DAA, 0.2% v/v X-77, read-out: percentage phytotoxicity TRZAW
Outline: as §1

[5] = system: Digitaria sanguinalis (DIGSA); conditions: post-emergence, 360 h, 14 or 15 DAA, 0.2% v/v X-77, read-out: percentage phytotoxicity DIGSA
Outline: as §1

Lolium perenne (LOLPE) = conditions: post-emergence, 14 or 15 DAA
Outline: as §1

[6] = system: Brachiaria plantaginea (BRAPL); conditions: Urochloa plantaginea, post-emergence, 360 h, 14 or 15 DAA, 0.2% v/v X-77, read-out: percentage phytotoxicity BRAPL
Outline: as §1

[7] = system: Beta vulgaris (BEAVA, sugarbeet); conditions: post-emergence, 360 h, 14 or 15 DAA, 0.2% v/v X-77, read-out: percentage phytotoxicity BEAVA
Outline: as §1

[8] = system: Glycine max (GLXMA, soybean); conditions: post-emergence, 360 h, 14 or 15 DAA, 0.2% v/v X-77, read-out: percentage phytotoxicity GLXMA
Outline: as §1

[9] = Echinochloa crus-galli, 360 h, 30 g/ha, 0.2% v/v X-77, read-out: percentage phytotoxicity ECHCG
[10] = Echinochloa crus-galli, 360 h, 250 g/ha, 0.2% v/v X-77, read-out: percentage phytotoxicity ECHCG
[11] = Zea mays, 360 h, 0.2% v/v X-77, read-out: percentage phytotoxicity ZEAMX
[12] = Zea mays, 360 h, 250 g/ha, 0.2% v/v X-77, read-out: percentage phytotoxicity ZEAMX
[13] = Lolium perenne, 360 h, 0.2% v/v X-77, read-out: percentage phytotoxicity LOLPE
[14] = Lolium perenne, 360 h, 250 g/ha, 0.2% v/v X-77, read-out: percentage phytotoxicity LOLPE

| Structure (SMILES) | pest or weed control at 30 g/ha [1, 9] [%] | pest or weed control at 250 g/ha [1, 10] [%] | pest or weed control at 30 g/ha [2] [%] | pest or weed control at 250 g/ha [2] [%] | pest or weed control at 30 g/ha (Setaria faberi (SETFA)) [%] | pest or weed control at 250 g/ha (Setaria faberi (SETFA)) [%] | pest or weed control at 30 g/ha [3, 11] [%] | pest or weed control at 250 g/ha [3, 12] [%] | pest or weed control at 30 g/ha (Avena fatua (AVEFA)) [%] | pest or weed control at 250 g/ha (Avena fatua (AVEFA)) [%] | plant injury at 30 g/ha [4] [%] | plant injury at 250 g/ha [4] [%] | pest or weed control at 30 g/ha [5] [%] | pest or weed control at 250 g/ha [5] [%] | pest or weed control at 30 g/ha (Lolium perenne (LOLPE); [13]) [%] | pest or weed control at 250 g/ha (Lolium perenne (LOLPE); [14]) [%] | pest or weed control at 30 g/ha [6] [%] | pest or weed control at 250 g/ha [6] [%] | plant injury at 250 g/ha [7] [%] | plant injury at 250 g/ha [8] [%] | other results |
| --- | --- | --- | --- | --- | --- | --- | --- | --- | --- | --- | --- | --- | --- | --- | --- | --- | --- | --- | --- | --- | --- |
| CC#Cc1cc(F)c(C2C(=O)C3CCC(C3)C2=O)c(OC)c1 (stereo not drawn) [Compound A1, 3-(2-Fluoro-6-methoxy-4-prop-1-ynyl-phenyl)-bicyclo[3.2.1]octane-2,4-dione] | 100 | 100 | 80 | 100 | 90 | 100 | 90 | 100 | 90 | 100 | 70 | 100 | 100 | 100 | 90 | 100 | 90 | 100 | 30 | – | percentage phytotoxicity ECHCG ([1]; 30 g/ha): 100%; percentage phytotoxicity ECHCG ([1]; 250 g/ha): 100%; percentage phytotoxicity ZEAMX ([3]; 250 g/ha, 0.2% v/v X-77): 100%; percentage phytotoxicity LOLPE (Lolium perenne (LOLPE); 250 g/ha, 0.2% v/v X-77): 100% |
| CC#Cc1cc(F)c(C2C(=O)C3CCC(C)(C2=O)C3(C)C)c(OC)c1 (stereo not drawn) [Compound A2] | – | 90 | – | 60 | – | 80 | – | 90 | – | 0 | – | 0 | – | 80 | – | 0 | – | – | 0 | 20 | – |
| CC#Cc1cc(F)c(C2C(=O)C3CCC(C3)C2=O)c(OC(F)F)c1 (stereo not drawn) [Compound A7] | 90 | 100 | 30 | 70 | 60 | 90 | 80 | 100 | 10 | 40 | 30 | 70 | 90 | 100 | 0 | 40 | 90 | 100 | 10 | 20 | pest or weed control at 125 g/ha ([1]; Echinochloa crus-galli, 360 h, 125 g/ha, 0.2% v/v X-77, read-out: percentage phytotoxicity ECHCG): 100%; pest or weed control at 125 g/ha ([2]; 125 g/ha): 70%; pest or weed control at 125 g/ha (Setaria faberi (SETFA); 125 g/ha): 90%; plant injury at 30 g/ha [8]: 20%; plant injury at 125 g/ha ([8]; 125 g/ha): 20%; pest or weed control at 125 g/ha ([3]; Zea mays, 360 h, 125 g/ha, 0.2% v/v X-77, read-out: percentage phytotoxicity ZEAMX): 90%; pest or weed control at 125 g/ha (Avena fatua (AVEFA); 125 g/ha): 30%; plant injury at 125 g/ha ([4]; 125 g/ha): 70%; pest or weed control at 125 g/ha ([5]; 125 g/ha): 100%; pest or weed control at 125 g/ha (Lolium perenne (LOLPE); Lolium perenne, 360 h, 125 g/ha, 0.2% v/v X-77, read-out: percentage phytotoxicity LOLPE): 30%; pest or weed control at 125 g/ha ([6]; 125 g/ha): 100%; plant injury at 30 g/ha [7]: 0%; plant injury at 125 g/ha ([7]; 125 g/ha): 0% |
| CC#Cc1cc(F)c(C2=C(OC(=O)C(C)(C)C)C3CCC(C3)C2=O)c(OC)c1 (stereo not drawn) [Compound P1] | 100 | 100 | 80 | 90 | 80 | 90 | 100 | 100 | 80 | 90 | 60 | 90 | 90 | 100 | 100 | 100 | 100 | 90 | 0 | 20 | plant injury at 30 g/ha [8]: 0%; plant injury at 30 g/ha [7]: 0% |
| CC#Cc1cc(F)c(C2=C(OC(=O)OC(C)C)C3CCC(C3)C2=O)c(OC)c1 (stereo not drawn) [Compound P3] | 100 | 100 | 70 | 90 | 100 | 100 | 100 | 100 | 90 | 90 | 80 | 90 | 100 | 100 | 90 | 100 | 100 | 100 | 0 | 0 | plant injury at 30 g/ha [8]: 0%; plant injury at 30 g/ha [7]: 0% |
| CC#Cc1cc(F)c(C2=C(OC(=O)SCC)C3CCC(C3)C2=O)c(OC)c1 (stereo not drawn) [Compound P4] | 90 | 100 | 80 | 100 | 90 | 100 | 100 | 100 | 90 | 100 | 80 | 100 | 80 | 100 | 90 | 100 | 100 | 100 | 0 | 20 | plant injury at 30 g/ha [8]: 10%; plant injury at 30 g/ha [7]: 0% |

From US10590143B2, “Herbicidally active (alkynyl-phenyl)-substituted cyclic dione compounds and derivatives thereof” (Syngenta Limited, priority 2013, dated 2020)
